Laboratory results: patent US5049560A, “Sulfonyl derivatives of thieno-triazolo-diazepines useful as anti-PAF and anti-ischemic agents” (priority 1989, dated 1991)

How the values were obtained:
[1] = test system: platelet aggregation induced by PAF; experiment: Inhibition of platelet aggregation induced by PAF; format: cell-based, New Zealand rabbits; details: Oryctolagus cuniculus, rabbit platelets, aggregometer at 57° C. [sic]
Experimental: 1) Inhibition of platelet aggregation induced by PAF
This experimentation was conducted according to the method of R. KINLOUGH. RATHBONE, J. P. CAZENAVE, M. PACKHAM and F. MUSTARD, Lab. Invest. 48, 98, 1980. In this test, New Zealand rabbits were used (male New Zealand rabbits of an average weight of 5 kg).
The determinations are made on a chrono-log Coultronics aggregometer, at […] coupled with a graphic recorder; the results of these determinations (in molecular concentration) are reported on the table I on the central column.

[2] = test system: omega 3 sites; experiment: Global ischemia on gerbils; format: in vivo, gerbil; details: Meriones unguiculatus, 168 h; both carotides clamped 10 minutes; hippocampes taken one week later; 3H-PK 11195 2 nM; compared to control; significance marks (*, **, ***, NS) given; read-out: Global protection in %
Experimental: 3) Global ischemia on gerbils
For this test, males gerbilles were anaesthetized with brietal at the doses of 35 mg/kg IP; thereafter, both carotides were clamped for 10 minutes, then the clamping was released. Treated animals received each 10 mg/kg of the compounds of one of the examples.
One week later, the animals were killed and both hippocampes were taken, weighed and frozen at -80° C.
After crushing with 1 ml of TRIS-HCl buffer pH 7.4 for 30 secondes, aliquots of each 50 μl of this preparation were incubed in each 1 ml of TRIS-HCl buffer containing ^3 H-PK 11195 at 2 nM (90 Ci/mmole, NENE, Germany) for 1 hour at 25° C. For each preparation, 3 determinations were made. The density of omega 3 sites (marked by the specific ^3 H PK 11195 marker) are expressed in f-moles of PK 11195/mg of fresh tissues and converted in percentage of protection compared to control.

[3] = Solubility; format: physicochemical
Experimental: Yield 38 g (85%) of an orange powder melting at 80° C. (Tottoli) insoluble in water at room temperature but soluble in DMSO.

[4] = Toxicity on mice; details: mouse, in vivo, IP
Description: None of these compounds of this invention was toxic per os at dose of 1 g/kg on mice.
None of the compounds was toxic IP at the dose of 1 g/kg on mice with the exception of the examples 1, 5 and 10 for which the LD 50 was comprised between 0.5 and 1 g/kg.

| SMILES | IC50 [1] | inhibition in vivo at 10 mg/kg [2] | solubility in DMSO ([3]; DMSO) | solubility in water ([3]; water, room temperature) | LD50 [4] |
| --- | --- | --- | --- | --- | --- |
| Cc1nnc2n1-c1sc3c(c1C(c1ccccc1Cl)=NC2)CCN(S(=O)(=O)C(C)C)C3 [Example 20, 6-(2-chlorophenyl)-9-isopropylsulfonyl-7,8,9,10-tetrahydro-1-methyl-4H-pyrido [4',3':4,5] thieno [3,2-f] 1,2,4-triazolo [4,3-a] 1,4-diazepine] | 517 nM | 47.5% | – | – | – |
| Cc1nnc2n1-c1sc3c(c1C(c1ccccc1Cl)=NC2)CCN(S(=O)(=O)c1cccs1)C3 [Example 11, 6-(2-chlorophenyl)-9-α-thienylphenylsulphonyl-7,8,9,10-tetrahydro-1-methyl 4H-pyrido [4',3':4,5] thieno [3,2-f] 1,2,4-triazolo [4,3-a] 1,4-diazepine] | 144 nM | 32.7% | – | – | – |
| Cc1nnc2n1-c1sc3c(c1C(c1ccccc1Cl)=NC2)CCN(S(=O)(=O)c1ccc(C(C)(C)C)cc1)C3 [Example 6, 6-(2-chlorophenyl)-9-(4-tert.butyl)phenylsuphonyl-7,8,9,10-tetrahydro-1-methyl 4H-pyrido [4',3':4,5] thieno [3,2-f] 1,2,4-triazolo [4,3-a] 1,4-diazepine] | 117 nM | 13.8% | – | – | – |
| Cc1cc(C)c(S(=O)(=O)N2CCc3c(sc4c3C(c3ccccc3Cl)=NCc3nnc(C)n3-4)C2)c(C)c1 [Example 8, 6-(2-chlorophenyl)-9-(2,4,6-trimethyl)phenylsulphonyl-7,8,9,10-tetrahydro-1-methyl 4H-pyrido [4',3':4,5] thieno [3,2-f] 1,2,4-triazolo [4,3-a] 1,4-diazepine] | 25.1 nM | 30.5% | – | – | – |
| Cc1nnc2n1-c1sc3c(c1C(c1ccccc1Cl)=NC2)CCN(S(=O)(=O)c1ccc(Oc2ccc(C(=O)O)cc2)cc1)C3 [Example 17, 6-(2-chlorophenyl)-9-[4-(4'-(carboxy)phenyloxy)phenyl] sulphonyl-7,8,9,10-tetrahydro-1-methyl-4H-pyrido [4',3':4,5] thieno [3,2-f] 1,2,4-triazolo [4,3-a] 1,4-diazepine] | 472 nM | 7.8% | – | – | – |
| CCCCCCCCCCCCCCCCS(=O)(=O)N1CCc2c(sc3c2C(c2ccccc2Cl)=NCc2nnc(C)n2-3)C1 [Example 1, 6-(2-chlorophenyl)-9-hexadecylsulphonyl-7,8,9,10-tetrahydro-1-methyl 4H-pyrido [4',3':4,5] thieno [3,2-f] 1,2,4-triazolo [4,3-a] 1,4-diazepine] | 96.3 nM | – | soluble | insoluble | 500 to 1000 mg/kg |
| Cc1nnc2n1-c1sc3c(c1C(c1ccccc1Cl)=NC2)CCN(S(=O)(=O)c1ccc[nH]1)C3 [Example 13, 6-(2-chlorophenyl)-9-(α-pyrrolyl)sulphonyl-7,8,9,10-tetrahydro-1-methyl-4H-pyrido [4',3':4,5] thieno [3,2-f] 1,2,4-triazolo [4,3-a] 1,4-diazepine] | 215 nM | 29.3% | – | – | – |
| COc1cc(OC)c(S(=O)(=O)N2CCc3c(sc4c3C(c3ccccc3Cl)=NCc3nnc(C)n3-4)C2)cc1SC [Example 18, 6-(2-chlorophenyl)-9-[5-methylthio 2,4-dimethoxy]phenyl sulphonyl-7,8,9,10-tetrahydro-1-methyl-4H-pyrido [4',3':4,5] thieno [3,2-f] 1,2,4-triazolo [4,3-a] 1,4-diazepine] | 22.2 nM | 10% | – | – | – |
| Cc1nnc2n1-c1sc3c(c1C(c1ccccc1Cl)=NC2)CCN(S(=O)(=O)c1ccc(C(F)(F)F)cc1)C3 [Example 4, 6-(2-chlorophenyl)-9-(trifluoromethyl)phenylsulphonyl-7,8,9,10-tetrahydro-1-methyl 4H-pyrido [4',3':4,5] thieno [3,2-f] 1,2,4-triazolo [4,3-a] 1,4-diazepine] | 98.2 nM | 38.7% | – | – | – |
| COc1cc(OC)c(S(=O)(=O)N2CCc3c(sc4c3C(c3ccccc3Cl)=NCc3nnc(C)n3-4)C2)cc1S(C)(=O)=O [Example 19, 6-(2-chlorophenyl)-9-[5-mesyl 2,4-dimethoxy]phenylsulphonyl-7,8,9,10-tetrahydro-1-methyl-4H-pyrido [4',3':4,5] thieno [3,2-f] 1,2,4-triazolo [4,3-a] 1,4-diazepine] | 375 nM | 8.4% | – | – | – |
| Cc1nnc2n1-c1sc3c(c1C(c1ccccc1Cl)=NC2)CCN(S(=O)(=O)c1cccc2cccnc12)C3 [Example 14, 6-(2-chlorophenyl)-9-(8-quinolyl)sulfonyl-7,8,9,10-tetrahydro-1-methyl-4H-pyrido-[4',3':4,5] thieno [3,2-f] 1,2,4-triazolo [4,3-a] 1,4-diazepine] | 65 nM | 17.4% | – | – | – |
| COc1ccc(S(=O)(=O)N2CCc3c(sc4c3C(c3ccccc3Cl)=NCc3nnc(C)n3-4)C2)cc1OC [Example 7, 6-(2-chlorophenyl)-9-(3,4-dimethoxy)phenylsulphonyl-7,8,9,10-tetrahydro-1-methyl 4H-pyrido [4',3':4,5] thieno [3,2-f] 1,2,4-triazolo [4,3-a] 1,4 diazepine] | 119 nM | 26.6% | – | – | – |
| Cc1nnc2n1-c1sc3c(c1C(c1ccccc1Cl)=NC2)CCN(S(=O)(=O)c1ccc(Oc2ccc([N+](=O)[O-])cc2)cc1)C3 [Example 10, 6-(2-chlorophenyl)-9-[4-(4'-nitrophenoxy)]phenylsulphonyl-7,8,9,10-tetrahydro-1-methyl 4H-pyrido [4',3':4,5] thieno [3,2-f] 1,2,4-triazolo [4,3-a] 1,4-diazepine] | 1.41 nM | 19.3% | – | – | 500 to 1000 mg/kg |
| Cc1nnc2n1-c1sc3c(c1C(c1ccccc1Cl)=NC2)CCN(S(=O)(=O)c1ccc2ccccc2c1)C3 [Example 15, 6-(2-chlorophenyl)-9-(2-naphtyl)sulphonyl-7,8,9,10-tetrahydro-1-methyl-4H-pyrido [4',3':4,5] thieno [3,2-f] 1,2,4-triazolo [4,3-a] 1,4-diazepine] | 431 nM | 34.8% | – | – | – |
| Cc1nnc2n1-c1sc3c(c1C(c1ccccc1Cl)=NC2)CCN(S(=O)(=O)c1ccco1)C3 [Example 12, 6-(2-chlorophenyl)-9-α-furylphenylsulphonyl-7,8,9,10-tetrahydro-1-methyl 4H-pyrido [4',3':4,5] thieno [3,2-f] 1,2,4-triazolo [4,3-a] 1,4-diazepine] | 110 nM | 21.4% | – | – | – |
| Cc1nnc2n1-c1sc3c(c1C(c1ccccc1Cl)=NC2)CCN(S(=O)(=O)c1c(Cl)cc(Cl)cc1Cl)C3 [Example 3, 6-(2-chlorophenyl)-9-(2,4,6-trichloro)phenylsulphonyl-7,8,9,10-tetrahydro-1-methyl 4H-pyrido [4',3':4,5] thieno [3,2-f] 1,2,4-triazolo [4,3-a] 1,4-diazepine] | 37.1 nM | 33.3% | – | – | – |
| Cc1nnc2n1-c1sc3c(c1C(c1ccccc1Cl)=NC2)CCN(S(=O)(=O)c1ccccc1)C3 [Example 2, 6-(2-chlorophenyl)-9-phenylsulphonyl-7,8,9,10-tetrahydro-1-methyl 4H-pyrido [4',3':4,5] thieno [3,2-f] 1,2,4-triazolo [4,3-a] 1,4-diazepine] | 225 nM | 38.3% | – | – | – |
| Cc1nnc2n1-c1sc3c(c1C(c1ccccc1Cl)=NC2)CCN(S(=O)(=O)c1ccc(C(=O)O)cc1)C3 [Example 16, 6-(2-chlorophenyl)-9-(4-carboxy)phenylsulphonyl-7,8,9,10-tetrahydro-1-methyl-4H-pyrido [4',3':4,5] thieno [3,2-f] 1,2,4-triazolo [4,3-a] 1,4-diazepine] | 20.1 nM | 23.9% | – | – | – |
| COc1ccc(S(=O)(=O)N2CCc3c(sc4c3C(c3ccccc3Cl)=NCc3nnc(C)n3-4)C2)cc1 [Example 9, 6-(2-chlorophenyl)-9-(4-methoxy)phenylsulphonyl-7,8,9,10-tetrahydro-1-methyl 4H-pyrido [4',3':4,5] thieno [3,2-f] 1,2,4-triazolo [4,3-a] 1,4-diazepine] | 122 nM | 9.4% | – | – | – |
| COc1ccc(S(=O)(=O)N2CCc3c(sc4c3C(c3ccccc3Cl)=NCc3nnc(C)n3-4)C2)c(OC)c1OC [Example 5, 6-(2-chlorophenyl)-9-(4,5,6-trimethoxy)phenylsulphonyl-7,8,9,10-tetrahydro-1-methyl 4H-pyrido [4',3':4,5] thieno [3,2-f] 1,2,4-triazolo [4,3-a] 1,4-diazepine] | 187 nM | 28.1% | – | – | 500 to 1000 mg/kg |
